The results in this text go back to patent US20220162221A1, “Imaging Agents” (UCB Biopharma SRL, priority 2017, published 2022).

For test [1], the target named is hD1R in SK-N-MC cells (Homo sapiens, UniProt P21728). Kind of test: cAMP HTRF D1 functional assay. The conditions noted are these: cAMP HTRF. (In general: TR-FRET usually uses a lanthanide donor and a delayed reading to cut background.)
Protocol: The reaction was terminated by consecutive additions of 10 μL d2 detection reagent and the cryptate reagent both diluted in lysis buffer. After a period of 60 min at room temperature, changes in HTRF emission ratio were determined and transformed in [cAMP]i using a standard curve.
Test [2] concerns the target T1, dopamine D5 receptor (D5R) (Homo sapiens, UniProt P21918).
T1 construct: purchased CEREP, contract assay
Kind of test: D5R binding, CEREP panel and pKi follow-up. The method, then: (§1) Compound selectivity for human D1R was assessed at 10 μM at CEREP against a panel of 80 targets (n=1 with data in duplicate) including receptors, transporters, enzymes and ion channels. Potentially relevant affinity was identified for only 3 targets: dopamine D5 receptor (D5R), tachykinin NK1 receptors and adenosine transporter (ADET) with >60% inhibition at 10 μM of compound (±)-(I). Affinity (pKi) of compound of formula (±)-I for human DSR, NK1 receptor and ADET were then measured.

In test [3] the target is T2, tachykinin NK1 receptors (Homo sapiens, UniProt P25103).
T2 construct: purchased CEREP, contract assay
Kind of test: NK1 binding, CEREP panel. The conditions noted are these: n=1 in duplicate. The method, then: as §1

In test [4] the test system is adenosine transporter (ADET). Kind of test: Adenosine transporter binding, CEREP panel. Particulars: at 10 μM, n=1 in duplicate. Also on record: species or system human. How it is done:
as §1

For test [5], the system named is panel of 80 targets including receptors, transporters, enzymes and ion channels. The test is described as follows: Selectivity panel of 80 targets (CEREP). It is filed as binding. How it is done:
(§2) To assess compound (I) affinity and selectivity for D1, it has been tested in competitive radioligand binding assays. Competitive radioligand binding assays were then used to measure (±)-I affinity for D1 receptor and assess its selectivity regarding a large panel of 80 related and unrelated targets.
as §1

Test [6] addresses human D1R (Homo sapiens, UniProt P21728). Kind of test: [3H]SCH23390 radioligand competitive binding (CEREP). Also on record: purchased CEREP (Celle l'Evescault, France), contract assay. How it is done: as §2
Affinity (pKi) of Compound of formula (±)-(I) for recombinant human D1R was measured at CEREP (Celle l'Evescault, France) by [^3]SCH23390 radioligand competitive binding experiments.

[7] abbreviates: competitive radioligand binding.

Bounds are passed on as bounds.

T1 sequence (P21918 whole entry): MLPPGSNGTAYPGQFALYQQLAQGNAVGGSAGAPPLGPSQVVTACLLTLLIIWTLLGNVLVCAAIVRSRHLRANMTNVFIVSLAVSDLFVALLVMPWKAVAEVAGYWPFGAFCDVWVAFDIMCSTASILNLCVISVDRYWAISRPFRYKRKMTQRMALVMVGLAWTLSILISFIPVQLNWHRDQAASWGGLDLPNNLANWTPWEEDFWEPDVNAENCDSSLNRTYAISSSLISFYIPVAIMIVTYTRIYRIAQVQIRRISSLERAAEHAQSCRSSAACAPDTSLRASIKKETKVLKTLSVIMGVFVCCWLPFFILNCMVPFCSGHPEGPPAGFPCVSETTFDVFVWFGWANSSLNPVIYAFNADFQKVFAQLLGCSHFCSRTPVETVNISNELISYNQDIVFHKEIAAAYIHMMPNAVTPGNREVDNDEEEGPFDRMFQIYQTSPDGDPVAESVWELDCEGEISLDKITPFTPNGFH
Sequence of human D1R (P21728 whole entry): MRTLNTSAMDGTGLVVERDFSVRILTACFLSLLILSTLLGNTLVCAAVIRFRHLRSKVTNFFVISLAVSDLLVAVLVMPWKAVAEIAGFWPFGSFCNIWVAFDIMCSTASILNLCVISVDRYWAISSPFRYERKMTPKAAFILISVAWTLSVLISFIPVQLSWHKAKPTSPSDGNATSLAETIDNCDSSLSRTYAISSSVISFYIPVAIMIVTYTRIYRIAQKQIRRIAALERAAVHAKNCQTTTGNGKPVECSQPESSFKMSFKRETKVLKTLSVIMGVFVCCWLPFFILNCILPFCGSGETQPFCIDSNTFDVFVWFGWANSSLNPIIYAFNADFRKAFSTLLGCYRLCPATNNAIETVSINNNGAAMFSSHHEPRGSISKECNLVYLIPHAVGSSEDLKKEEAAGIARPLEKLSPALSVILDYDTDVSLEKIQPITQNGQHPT
Sequence of hD1R in SK-N-MC cells (P21728 whole entry): as above
T2 sequence (P25103 whole entry): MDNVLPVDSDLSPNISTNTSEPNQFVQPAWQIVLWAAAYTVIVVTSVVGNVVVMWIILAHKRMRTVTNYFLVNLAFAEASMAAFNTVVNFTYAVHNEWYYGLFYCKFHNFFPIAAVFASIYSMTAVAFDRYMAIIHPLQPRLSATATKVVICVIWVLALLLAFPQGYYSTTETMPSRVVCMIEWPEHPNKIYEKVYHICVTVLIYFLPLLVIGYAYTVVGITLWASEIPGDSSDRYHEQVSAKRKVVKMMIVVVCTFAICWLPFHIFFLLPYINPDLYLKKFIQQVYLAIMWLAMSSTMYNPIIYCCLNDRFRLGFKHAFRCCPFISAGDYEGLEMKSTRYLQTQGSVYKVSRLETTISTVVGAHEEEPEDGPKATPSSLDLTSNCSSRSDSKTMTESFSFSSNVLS

For `Cc1c(-c2ccc(Oc3nccc4occc34)cc2CF)n(C)c(=O)[nH]c1=O` (racemic) [Compound (±)-(I), 6-[2-(fluoromethyl)-4-(furo[3,2-c]pyridin-4-yloxy)phenyl]-1,5-dimethylpyrimidine-2,4(1H,3H)-dione], the “agonist-like effect on D1 receptor” value in test [1] is recorded as “significant direct agonist-like effect”. Further, the Ki was 0.398 nM in test [2] and 0.631 nM in test [6] ([3H]SCH23390 competition, read-out: pKi for human D1R (converted)). Moreover, the inhibition (in general, the drop in the measured response relative to a control, in per cent) at 10 µM in test [2] (at 10 μM, n=1 in duplicate) is greater than 60%; in test [3] it was greater than 60%. Further, in test [2] (setting [7]), the “affinity for D5 receptor” value is “subnanomolar range”. Also, in test [4], the “inhibition, adenosine transporter (ADET)” value is greater than 60%. In addition, in test [5] (D1-like vs other targets), the “selectivity with respect to the other 79 tested targets” value is recorded as “more than 1000 fold”. Also, in test [5] (all targets other than D1R, D5R excepted by text), the “pKi for the other 79 tested targets” value was no more than 6.0. In test [5] (panel of 80 targets), the “binding to the other tested targets” value is listed as “do not significantly bind”. For the same molecule, in test [6] (setting [7]), the “affinity for D1 receptor” value is “subnanomolar range”.
